Assay results as given in ChEMBL document CHEMBL3638530, “Viral polymerase inhibitors” (2013).

Molecular target: Genome polyprotein (Hepatitis C virus genotype 3a (isolate NZL1) (HCV), UniProt Q81258)
Experiment: Inhibition Assay: HCV polymerase inhibition assay: HCV polymerase reactions were carried out using a modified mothod of Howe et al., Antimicrobial Agents and Chemotherapy 2004 48(12): 4813-4821.

Sequence of Genome polyprotein (Q81258 2431-3021 limits assumed): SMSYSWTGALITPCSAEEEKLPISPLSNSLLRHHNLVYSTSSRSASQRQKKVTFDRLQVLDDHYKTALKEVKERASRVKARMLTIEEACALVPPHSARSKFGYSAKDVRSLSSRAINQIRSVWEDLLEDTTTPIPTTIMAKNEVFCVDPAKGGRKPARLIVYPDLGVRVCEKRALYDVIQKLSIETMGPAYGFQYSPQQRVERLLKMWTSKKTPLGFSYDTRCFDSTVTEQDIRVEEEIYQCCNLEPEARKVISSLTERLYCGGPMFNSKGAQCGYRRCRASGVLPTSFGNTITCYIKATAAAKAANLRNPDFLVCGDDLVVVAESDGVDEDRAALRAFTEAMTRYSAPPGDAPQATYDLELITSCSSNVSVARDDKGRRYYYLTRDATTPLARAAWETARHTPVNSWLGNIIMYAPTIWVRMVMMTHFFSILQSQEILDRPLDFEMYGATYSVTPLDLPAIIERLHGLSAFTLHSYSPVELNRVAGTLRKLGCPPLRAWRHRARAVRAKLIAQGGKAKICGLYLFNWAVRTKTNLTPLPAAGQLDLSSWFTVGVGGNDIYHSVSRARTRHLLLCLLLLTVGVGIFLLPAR

CNC(=O)c1c2cc(C3CC3)c(N(CCCNC(=O)c3ncoc3C)S(C)(=O)=O)cc2nn1-c1ccc(Br)cc1
IC50: 30 nM
